Counter-ions that a name gives are not always drawn.
Each compound was assayed against T1, Calcium Sensing Receptor (CaSR) (Homo sapiens, UniProt P41180) (assay: In-vitro assay of calcimimetics through modulation of Calcium Sensing Receptor (intracellular calcium, FLIPR)). Conditions: HEK293 cells stably expressing hCaSR, increase in intracellular calcium, Fluo4NW dye, 0.3 mM CaCl2, 8-point assay, read-out: EC50 Range.
T1 construct: expressed in transfected cells
T1 sequence (P41180 20-1078): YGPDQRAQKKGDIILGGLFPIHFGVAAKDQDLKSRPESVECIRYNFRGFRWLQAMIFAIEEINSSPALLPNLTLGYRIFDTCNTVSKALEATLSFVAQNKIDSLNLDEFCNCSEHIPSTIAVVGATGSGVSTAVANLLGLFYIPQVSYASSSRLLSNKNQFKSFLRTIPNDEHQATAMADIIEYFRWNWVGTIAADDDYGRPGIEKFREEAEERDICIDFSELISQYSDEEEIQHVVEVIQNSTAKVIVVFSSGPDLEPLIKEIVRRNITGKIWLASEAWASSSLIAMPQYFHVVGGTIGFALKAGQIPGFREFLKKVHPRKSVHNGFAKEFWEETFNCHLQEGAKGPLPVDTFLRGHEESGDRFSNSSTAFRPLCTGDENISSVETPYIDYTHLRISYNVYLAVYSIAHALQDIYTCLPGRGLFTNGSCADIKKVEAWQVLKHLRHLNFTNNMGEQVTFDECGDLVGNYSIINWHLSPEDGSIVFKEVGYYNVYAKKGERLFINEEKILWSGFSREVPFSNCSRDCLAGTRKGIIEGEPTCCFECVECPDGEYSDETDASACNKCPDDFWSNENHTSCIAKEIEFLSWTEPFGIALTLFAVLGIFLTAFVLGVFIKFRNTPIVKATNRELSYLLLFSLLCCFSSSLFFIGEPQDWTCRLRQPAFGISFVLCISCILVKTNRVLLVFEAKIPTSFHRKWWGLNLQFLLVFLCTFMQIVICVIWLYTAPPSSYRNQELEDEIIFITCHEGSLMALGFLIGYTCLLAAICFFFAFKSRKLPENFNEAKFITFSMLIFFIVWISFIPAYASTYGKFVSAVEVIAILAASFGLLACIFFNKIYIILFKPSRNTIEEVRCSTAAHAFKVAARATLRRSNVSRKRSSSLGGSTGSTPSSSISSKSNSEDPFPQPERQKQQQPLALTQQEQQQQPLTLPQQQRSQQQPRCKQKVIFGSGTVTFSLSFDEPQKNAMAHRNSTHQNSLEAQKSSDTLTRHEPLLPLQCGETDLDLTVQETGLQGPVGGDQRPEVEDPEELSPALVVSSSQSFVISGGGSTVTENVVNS
Format: cell-based
Method: In-vitro assay method of Calcimimetics through modulation of Calcium Sensing Receptor (CaSR):
The ability of the compounds to modulate Calcium sensing receptor is determined by measuring an increase in intracellular calcium [Ca^2+]i. Stably transfected HEK293 cells expressing hCaSR_pTriEx-3 hygro vector are developed. Cells are grown overnight on a 96-well plate to 80% confluency in Ham's F12 containing 20% FBS at 37° C., 5% CO2. Subsequently, cells are washed extensively with 20 mM HEPES buffer containing 126 mM […], 1 mM MgCl2 and 4 mM KCl to remove serum components that might interfere with the assay. Cells are loaded with calcium sensing Fluo4NW dye in HEPES base buffer containing 0.1% BSA and 1 mg/ml glucose for 30 minutes to measure changes in intracellular calcium. The activities of the compounds are measured in FLIPR using 0.3 mM CaCl2 in 20 mM HEPES base buffer. The effectiveness of the compound to modulate receptor activity is determined by calculating the EC50 responses for that compound in an 8-point assay and plotted using GraphPad Prism 5.

EC50 | SMILES
50 to 200 nM | Cc1c(C(=O)O)ccc(F)c1[C@H]1C[C@H](CN[C@H](C)c2cccc3ccccc23)Oc2ccccc21 [Example 81a, 4-Fluoro-2-methyl-3-((2R,4S)-2-((((R)-1-(naphthalen-1-yl)ethyl)amino)methyl)chroman-4-yl)benzoic acid hydrochloride]
< 20 nM | C[C@@H](NCCC[C@H]1C[C@@H](c2ccc(C(=O)O)cc2)c2ccccc2O1)c1ccc(F)c2ccccc12 [Example 136, 4-((2S,4S)-2-(3-(((R)-1-(4-Fluoronaphthalen-1-yl)ethyl)amino)propyl)chroman-4-yl)benzoic acid hydrochloride]
< 20 nM | Cc1ccc([C@@H]2C[C@H](CN[C@H](C)c3ccc(F)c4ccccc34)Oc3ccccc32)cc1C(=O)O [Example 119b, 5-((2R,4S)-2-((((R)-1-(4-Fluoronaphthalen-1-yl)ethyl)amino)methyl)chroman-4-yl)-2-methyl benzoic acid hydrochloride]
50 to 200 nM | COc1cc([C@@H](C)NC[C@H]2C[C@@H](c3ccc(C(=O)O)c(C)c3)c3ccccc3O2)ccc1F [Example 114, 4-((2R,4S)-2-((((R)-1-(4-Fluoro-3-methoxyphenyl)ethyl)amino)methyl)chroman-4-yl)-2-methylbenzoic acid hydrochloride]
20 to 50 nM | C[C@@H](NC[C@H]1C[C@@H](c2ccc(CC(=O)O)cc2)c2ccccc2O1)c1cccc2ccccc12 [Example 107b, 2-(4-((2R,4S)-2-((((R)-1-(Naphthalen-1-yl)ethyl)amino)methyl)chroman-4-yl)phenyl)acetic acid hydrochloride]
< 20 nM | C[C@@H](NC[C@H]1C[C@@H](c2ccc(F)c(OCC(=O)O)c2)c2ccccc2O1)c1cccc2ccccc12 [Example 93b, 2-(2-Fluoro-5-((2R,4S)-2-((((R)-1-(naphthalen-1-yl)ethyl)amino)methyl)chroman-4-yl)phenoxy)acetic acid hydrochloride]
50 to 200 nM | C[C@@H](NC[C@H]1C[C@H](c2ccc(C(C)(C)C(=O)O)cc2)c2ccccc2O1)c1cccc2ccccc12 [Example 108a, 2-Methyl-2-(4-((2R,4R)-2-((((R)-1-(naphthalen-1-yl)ethyl)amino)methyl)chroman-4-yl)phenyl)propanoic acid hydrochloride]
< 20 nM | Cc1cc([C@@H]2C[C@H](CN[C@H](C)c3cccc4ccccc34)Oc3ccccc32)ccc1C(=O)O [Example 99b, 2-Methyl-4-((2R,4S)-2-((((R)-1-(naphthalen-1-yl)ethyl)amino)methyl)chroman-4-yl)benzoic acid hydrochloride]
< 20 nM | C[C@@H](NC[C@H]1C[C@H](c2ccc(F)c(OCC(=O)O)c2)c2ccccc2O1)c1cccc2ccccc12 [Example 93a, 2-(2-Fluoro-5-((2R,4R)-2-((((R)-1-(naphthalen-1-yl)ethyl)amino)methyl)chroman-4-yl)phenoxy)acetic acid hydrochloride]
< 20 nM | C[C@@H](NC[C@H]1C[C@@H](c2ccc(C(F)(F)F)c(C(=O)O)c2)c2ccccc2O1)c1cccc2ccccc12 [Example 83, 5-((2R,4S)-2-((((R)-1-(Naphthalen-1-yl)ethyl)amino)methyl)chroman-4-yl)-2-(trifluoromethyl)benzoic acid hydrochloride]
< 20 nM | Cc1ccc([C@@H]2C[C@H](CN[C@H](C)c3cccc4ccccc34)Oc3ccccc32)cc1C(=O)O [Example 84b, 2-Methyl-5-((2R,4S)-2-((((R)-1-(naphthalen-1-yl)ethyl)amino)methyl)chroman-4-yl)benzoic acid hydrochloride]
50 to 200 nM | CCN(C)C(=O)c1cc([C@@H]2C[C@H](CN[C@H](C)c3cccc4ccccc34)Oc3ccccc32)ccc1C [Example 145, N-Ethyl-N,2-dimethyl-5-((2R,4S)-2-((((R)-1-(naphthalen-1-yl)ethyl)amino)methyl)chroman-4-yl)benzamide hydrochloride]
20 to 50 nM | C[C@@H](NC[C@H]1C[C@@H](c2cccc(OC(C)(C)C(=O)O)c2)c2ccccc2O1)c1cccc2ccccc12 [Example 97, 2-Methyl-2-(3-((2R,4S)-2-((((R)-1-(naphthalen-1-yl)ethyl)amino)methyl)chroman-4-yl)phenoxy)propanoic acid hydrochloride]
< 20 nM | COc1cc(C(=O)O)ccc1[C@@H]1C[C@H](CN[C@H](C)c2cccc3ccccc23)Oc2ccccc21 [Example 102b, 3-Methoxy-4-((2R,4S)-2-((((R)-1-(naphthalen-1-yl)ethyl)amino)methyl)chroman-4-yl)benzoic acid hydrochloride]
20 to 50 nM | COc1c(C(=O)O)cccc1[C@H]1C[C@H](CN[C@H](C)c2cccc3ccccc23)Oc2ccccc21 [Example 89a, 2-Methoxy-3-((2R,4S)-2-((((R)-1-(naphthalen-1-yl)ethyl)amino)methyl)chroman-4-yl)benzoic acid hydrochloride]
< 20 nM | Cc1ccc([C@@H]2C[C@H](CN[C@H](C)c3cccc4ccccc34)Oc3ccccc32)cc1OCC(=O)O [Example 91, 2-(2-Methyl-5-((2R,4S)-2-((((R)-1-(naphthalen-1-yl)ethyl)amino)methyl)chroman-4-yl)phenoxy)acetic acid hydrochloride]
< 20 nM | C[C@@H](NC[C@H]1C[C@@H](c2ccc(C(=O)O)c(F)c2)c2ccccc2O1)c1cccc2ccccc12 [Example 104, 2-Fluoro-4-((2R,4S)-2-((((R)-1-(naphthalen-1-yl)ethyl)amino)methyl)chroman-4-yl)benzoic acid hydrochloride]
< 20 nM | C[C@@H](NC[C@H]1C[C@@H](c2ccc(OCC(=O)O)cc2)c2ccccc2O1)c1cccc2ccccc12 [Example 105b, 2-(4-((2R,4S)-2-((((R)-1-(Naphthalen-1-yl)ethyl)amino)methyl)chroman-4-yl)phenoxy)acetic acid hydrochloride]
< 20 nM | Cc1c(C(=O)O)ccc(F)c1[C@@H]1C[C@H](CN[C@H](C)c2cccc3ccccc23)Oc2ccccc21 [Example 81b, 4-Fluoro-2-methyl-3-((2R,4R)-2-((((R)-1-(naphthalen-1-yl)ethyl)amino)methyl)chroman-4-yl)benzoic acid hydrochloride]
50 to 200 nM | C[C@@H](NC[C@H]1C[C@@H](c2ccc(C(C)(C)C(=O)O)cc2)c2ccccc2O1)c1cccc2ccccc12 [Example 108b, 2-Methyl-2-(4-((2R,4S)-2-((((R)-1-(naphthalen-1-yl)ethyl)amino)methyl)chroman-4-yl)phenyl)propanoic acid hydrochloride]
< 20 nM | Cc1ccc([C@@H]2C[C@H](CCN[C@H](C)c3cccc4ccccc34)Oc3ccccc32)cc1C(=O)O [Example 124, 2-Methyl-5-((2R,4S)-2-(2-(((R)-1-(naphthalen-1-yl)ethyl)amino)ethyl)chroman-4-yl)benzoic acid hydrochloride]
50 to 200 nM | C[C@@H](NC[C@H]1C[C@H](c2ccc(C(=O)O)cc2)c2ccccc2O1)c1cccc2ccccc12 [Example 98a, 4-((2R,4R)-2-((((R)-1-(Naphthalen-1-yl)ethyl)amino)methyl)chroman-4-yl)benzoic acid hydrochloride]
< 20 nM | Cc1ccc([C@@H]2C[C@H](CN[C@H](C)c3cccc4ccccc34)Oc3ccccc32)c(C)c1C(=O)O [Example 67, 2,6-Dimethyl-3-((2R,4S)-2-((((R)-1-(naphthalen-1-yl)ethyl)amino)methyl)chroman-4-yl)benzoic acid hydrochloride]
50 to 200 nM | COc1cc([C@@H](C)NC[C@H]2C[C@@H](c3ccc(C)c(C(=O)O)c3)c3ccccc3O2)ccc1F [Example 116, 5-((2R,4S)-2-((((R)-1-(4-Fluoro-3-methoxyphenyl)ethyl)amino)methyl)chroman-4-yl)-2-methyl benzoic acid hydrochloride]

From patent publication US9598391B2, “Substituted chroman compounds as calcium sensing receptor modulators” (LUPIN LIMITED, priority 2012, dated 2017)
